Experimental data published in US20230399287A1, “NOVEL COMPOUNDS” (Sitryx Therapeutics Limited, priority 2020, published 2023).

Legend:
IL-1β = test: THP-1 AlphaLISA IL-1β cytokine assay; type: cell-based; conditions: Homo sapiens, THP-1, differentiated THP-1 cells, LPS 24 hr then Nigericin 1 hour
Procedure: (§1) Measuring Inhibitory Effects on IL-1V and IL-6 Cytokine Output from THP-1s
(§2) The cytokine inhibition profiles of compounds of formula (I) were determined in a differentiated THP-1 cell assay. All assays were performed in RPMI-1640 growth medium (Gibco), supplemented with 10% fetal bovine serum (FBS; Gibco), 1% penicillin-streptomycin and 1% sodium pyruvate unless specified otherwise. The IL-1β and IL-6 cytokine inhibition assays were run in a background of differentiated THP-1 cells as described below. All reagents described were from Sigma-Aldrich unless specified otherwise. Compounds were prepared as 10 mM DMSO stocks.
(§3) THP-1 cells were expanded as a suspension up to 80% confluence in appropriate growth medium. Cells were harvested, suspended, and treated with an appropriate concentration of phorbol 12-myristate 13-acetate (PMA) over a 72 hr period (37° C./5% CO2).
(§4) Following 72 hrs of THP-1 cell incubation, cellular medium was removed and replaced with fresh growth media containing 1% of FBS. Working concentrations of compounds were prepared separately in 10% FBS treated growth medium and pre-incubated with the cells for 30 minutes (37° C./5% CO2). Following the 30 minute compound pre-incubation, THP-1s were treated with an appropriate concentration of LPS and the THP-1s were subsequently incubated for a 24 hr period (37° C./5% CO2). An appropriate final concentration of Nigericin was then dispensed into the THP-1 plates and incubated for 1 hour (37° C./5% CO2) before THP-1 supernatants were harvested and collected in separate polypropylene 96-well holding plates.
(§5) Reagents from each of the IL-1β and IL-6 commercial kits (Perkin Elmer) were prepared and run according to the manufacturer's instructions. Subsequently, fluorescence signal detection in a microplate reader was measured (EnVision® Multilabel Reader, Perkin Elmer).
(§6) Percentage inhibition was calculated per cytokine by normalising the sample data to the high and low controls used within each plate (+/−LPS respectively). Percentage inhibition was then plotted against compound concentration and the 50% inhibitory concentration ([…]) was determined from the resultant concentration-response curve.

IL-6 = test: THP-1 AlphaLISA IL-6 cytokine assay; type: cell-based; conditions: Homo sapiens, THP-1, differentiated THP-1 cells, LPS 24 hr then Nigericin 1 hour
Procedure: as §1, §2, §3, §4, §5, §6

[1] = Hepatocyte stability assay (human); type: in vitro ADME; conditions: human, cryopreserved hepatocytes, 10 μM compound, 60 min, read-out: T½
Description: (§7) Defrosted cryo-preserved hepatocytes (viability>70%) were used to determine the metabolic stability of a compound via calculation of intrinsic clearance (Clint; a measure of the removal of a compound from the liver in the absence of blood flow and cell binding). Clearance data are particularly important for in vitro work as they can be used in combination with in vivo data to predict the half-life and oral bioavailability of a drug.
(§8) The metabolic stability in hepatocytes assay involved a time-dependent reaction using both positive and negative controls. The cells must be pre-incubated at 37° C. then spiked with test compound (and positive control); samples taken at pre-determined time intervals were analysed to monitor the change in concentration of the initial drug compound over 60 minutes. A buffer incubation reaction (with no hepatocytes present) acted as a negative control and two cocktail solutions, containing compounds with known high and low clearance values (verapamil/7-hydroxycoumarin and propranolol/diltiazem), acted as positive controls. • 1. The assay was run with a cell concentration of 0.5×10^6 cells/mL in Leibovitz buffer. • 2. All compounds and controls were run in duplicate. • 3. Compound concentration was 10 μM. • 4. All compounds and controls were incubated with both cells and buffer to show turnover is due to hepatic metabolism. • 5. All wells on the incubation plate had 326.7 μL of either cells or buffer added. • 6. Prior to assay, cell and buffer-only incubation plates were preincubated for 10 mins at 37° C. • 7. The assay was initiated by adding compounds, 3.3 μL of 1 mM in 10% DMSO-90% Buffer; final DMSO concentration is 0.1%. • 8. Samples were taken at regular timepoints (0, 5, 10, 20, 40, 60 min) until 60 mins. • 9. Sample volume was 40 μL and added to 160 μL of crash solvent (acetonitrile with internal standard) and stored on ice. • 10. At the end of the assay, the crash plates were centrifuged at 3500 rpm for 20 mins at 4° C. • 11. 80 μL of clear supernatant was removed and mixed with 80 μL of deionised water before being analysed by LC-MS/MS.
(§9) Raw LC-MS/MS data were exported to, and analysed in, Microsoft Excel for determination of intrinsic clearance. The percentage remaining of a compound was monitored using the peak area of the initial concentration as 100%. Intrinsic clearance and half-life values were calculated using a graph of the natural log of percentage remaining versus the time of reaction in minutes. Half-life (min) and intrinsic clearance (Clint in μL min^−1 10^−6 cells) values were calculated using the gradient of the graph (the elimination rate constant, k) and Equations 1 and 2.

hepatocytes [2] = test: Hepatocyte stability assay (human); type: in vitro ADME; conditions: 10 μM compound, 60 min
Description: as §7, §8, §9

[3] = Hepatocyte stability assay (mouse); type: in vitro ADME; conditions: mouse, cryopreserved hepatocytes, 10 μM compound, 60 min, read-out: T½
Description: as §7, §8, §9

hepatocytes [4] = test: Hepatocyte stability assay (mouse); type: in vitro ADME; conditions: 10 μM compound, 60 min
Description: as §7, §8, §9

NRF2 = NRF2 +/- GSH activation assay (DiscoverX PathHunter NRF2 translocation kit); type: cell-based; conditions: for Emax: normalised to dimethyl fumarate high control; for EC50: Homo sapiens, U2OS, U2OS PathHunter cells

EC50 (NRF2; +GSH)	EC50 (NRF2; −GSH)	SMILES	IC50 (IL-1β)	IC50 (IL-6)	half-life at 10 μM [1]	Clint (hepatocytes [2])	half-life at 10 μM [3]	Clint (hepatocytes [4])	Emax (NRF2; +GSH)	Emax (NRF2; −GSH)
		C=C(CC(=O)O[C@]1(c2ccc(C(F)(F)F)cc2)C[C@H](OC)C1)C(=O)O [Example 42, 4-((cis)-3-methoxy-1-(4-(trifluoromethyl)phenyl)cyclobutoxy)-2-methylene-4-oxobutanoic acid]	17.1 µM	> 31.6 µM	7.47 h	4 μL min^−1 10^−6 cells	> 7.67 h	<3 μL min^−1 10^−6 cells		
		C=C(CC(=O)OC1(c2ccc(Br)cn2)CCC1)C(=O)O [Example 50, 4-(1-(5-bromopyridin-2-yl)cyclobutoxy)-2-methylene-4-oxobutanoic acid]	1.5 µM	> 100 µM	> 7.67 h	<3 μL min^−1 10^−6 cells	7 h	4 μL min^−1 10^−6 cells		
> 100 µM	> 100 µM	C=C(CC(=O)O[C@@H](C)c1ccc(C(F)(F)F)cc1)C(=O)O [Example 4, (S)-2-methylene-4-oxo-4-(1-(4-(trifluoromethyl)phenyl)ethoxy)butanoic acid]	1.9 µM	> 56.2 µM	2.45 h	10 μL min^−1 10^−6 cells			0%	4%
		C=C(CC(=O)OC1(c2ccc(Br)cc2)COC1)C(=O)O [Example 23, 4-((3-(4-bromophenyl)oxetan-3-yl)oxy)-2-methylene-4-oxobutanoic acid]	1.4 µM	> 100 µM	> 7.67 h	<3 μL min^−1 10^−6 cells	2.1 h	12 μL min^−1 10^−6 cells		
		C=C(CC(=O)OC1(c2ccc(C(F)(F)F)cc2)CS(=O)(=O)C1)C(=O)O [Example 49, 4-((1,1-dioxido-3-(4-(trifluoromethyl)phenyl)thietan-3-yl)oxy)-2-methylene-4-oxobutanoic acid]	5 µM	> 100 µM	0.25 h	91 μL min^−1 10^−6 cells	0.317 h	68 μL min^−1 10^−6 cells		
		C=C(CC(=O)OC1(c2ccc(C(F)(F)F)cc2)CCOCC1)C(=O)O [Example 47, 2-methylene-4-oxo-4-((4-(4-(trifluoromethyl)phenyl)tetrahydro-2H-pyran-4-yl)oxy)butanoic acid]	6.7 µM	> 100 µM	> 7.67 h	<3 μL min^−1 10^−6 cells	> 7.67 h	<3 μL min^−1 10^−6 cells		
		C=C(CC(=O)OC1(c2ccc(S(F)(F)(F)(F)F)cc2)CCC1)C(=O)O [Example 18, 2-methylene-4-oxo-4-(1-(4-(pentafluoro-λ^6-sulfaneyl)phenyl)cyclobutoxy)butanoic acid]	1.8 µM	62.1 µM	3.63 h	8 μL min^−1 10^−6 cells	0.633 h	50 μL min^−1 10^−6 cells		
		C=C(CC(=O)O[C@H](c1ccc(C(F)(F)F)cc1)C(F)(F)F)C(=O)O [Example 34, (R)-2-methylene-4-oxo-4-(2,2,2-trifluoro-1-(4-(trifluoromethyl)phenyl)ethoxy)butanoic acid]	12.2 µM	> 31.6 µM	0.867 h	26 μL min^−1 10^−6 cells	0.433 h	48 μL min^−1 10^−6 cells		
		C=C(CC(=O)OC1(c2ccc(C#N)cc2)CCC1)C(=O)O [Example 25, 4-(1-(4-cyanophenyl)cyclobutoxy)-2-methylene-4-oxobutanoic acid]	15.5 µM	> 100 µM	5.65 h	4 μL min^−1 10^−6 cells	2.95 h	9 μL min^−1 10^−6 cells		
		C=C(C(=O)O)C1(C(=O)OC2(c3ccc(C(F)(F)F)cc3)CCC2)CC1 [Example 39, 2-(1-((1-(4-(trifluoromethyl)phenyl)cyclobutoxy)carbonyl)cyclopropyl)acrylic acid]	1.5 µM	> 100 µM	1.08 h	18 μL min^−1 10^−6 cells	0.8 h	45 μL min^−1 10^−6 cells		
		C=C(CC(=O)OC1(c2ccc(C(F)(F)F)cc2)CC2(CC2)C1)C(=O)O [Example 61, 2-methylene-4-oxo-4-((5-(4-(trifluoromethyl)phenyl)spiro[2.3]hexan-5-yl)oxy)butanoic acid]	5.5 µM	> 100 µM	3.58 h	6 μL min^−1 10^−6 cells	1.72 h	21 μL min^−1 10^−6 cells		
		C=C(CC(=O)OC1(c2ccc(C(F)(F)F)nc2)CCC1)C(=O)O [Example 22, 2-methylene-4-oxo-4-(1-(6-(trifluoromethyl)pyridin-3-yl)cyclobutoxy)butanoic acid]	5.1 µM	> 100 µM	> 7.67 h	<3 μL min^−1 10^−6 cells	8.87 h	4 μL min^−1 10^−6 cells		
		C=C(CC(=O)OC1(c2ncc(C(F)(F)F)cn2)CCC1)C(=O)O [Example 52, 2-methylene-4-oxo-4-(1-(5-(trifluoromethyl)pyrimidin-2-yl)cyclobutoxy)butanoic acid]	11.7 µM	> 100 µM	> 7.67 h	<3 μL min^−1 10^−6 cells	5.12 h	5 μL min^−1 10^−6 cells		
		C=C(CC(=O)OC1(c2ccc(C(F)(F)F)cn2)COC1)C(=O)O [Example 46, 2-methylene-4-oxo-4-(3-(5-(trifluoromethyl)pyridin-2-yl)oxetan-3-yloxy)butanoic acid]	4.1 µM	> 31.6 µM	> 7.67 h	<3 μL min^−1 10^−6 cells	> 7.67 h	<3 μL min^−1 10^−6 cells		
		C=C(CC(=O)OC1(c2ccc(C(F)(F)F)cc2)CC(C)C1)C(=O)O (single isomer, unassigned) [Example 44, 4-(3-methyl-1-(4-(trifluoromethyl)phenyl)cyclobutoxy)-2-methylene-4-oxobutanoic acid]	5.1 µM	> 100 µM	> 7.67 h	<3 μL min^−1 10^−6 cells	2.33 h	9 μL min^−1 10^−6 cells		
